Measured values taken from patent US5707966A, “Antithrombotic agents” (Eli Lilly and Company, priority 1995, dated 1998).
Structures can show the parent of a compound that is named as a salt. Where two headings read alike, the source gives them in different places.

Experiments:
Assay type in all cases: biochemical
[1] = tested on: Human plasma; test: Human plasma anticoagulation, thrombin time (TT); details: concentration required to double the thrombin time, linear extrapolation
In short: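 Compound was spiked over a wide concentration range into citrated human plasma, and clotting times were read on a coagulation instrument. PT was started with saline plus Thromboplastin-C. APTT used 120 s preincubation with Actin, then 0.02M CaCl2. TT used saline plus bovine thrombin (10 NIH units/mL). Doubling concentrations were obtained by linear extrapolation.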

[2] = target: Human Thrombin (Homo sapiens, UniProt P00734); test: Inhibition of amidase activity of thrombin (Kass)
[3] = target: T1, factor Xa (Homo sapiens, UniProt P00742); test: Kass with factor Xa, chromogenic substrate
T1 construct: Human factors X, Xa, IXa, XIa, and XIIa are purchased; purchased Enzyme Research Laboratories, South Bend, Ind
T1 sequence (P00742 235-488 limits assumed): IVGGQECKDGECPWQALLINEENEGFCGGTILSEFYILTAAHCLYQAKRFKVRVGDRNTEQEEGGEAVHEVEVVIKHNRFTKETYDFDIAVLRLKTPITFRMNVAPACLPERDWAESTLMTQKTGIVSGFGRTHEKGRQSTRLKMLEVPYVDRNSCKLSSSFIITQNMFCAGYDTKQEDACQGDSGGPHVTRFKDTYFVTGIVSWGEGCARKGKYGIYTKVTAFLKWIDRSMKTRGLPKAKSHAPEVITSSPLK
T1 sequence (P00742 41-179 partner limits assumed): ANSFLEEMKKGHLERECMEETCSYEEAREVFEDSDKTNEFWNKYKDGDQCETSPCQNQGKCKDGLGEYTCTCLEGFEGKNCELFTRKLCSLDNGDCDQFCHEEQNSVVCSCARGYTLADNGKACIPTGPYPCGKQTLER
Procedure: (§1) By substantially following the procedures described above for human thrombin, and using other human blood coagulation system serine proteases and proteases of the fibrinolytic system with the appropriate chromogenic substrates, identified below, selectivity of the compounds of the present invention with respect to the coagulation factor serine proteases and with respect to the fibrinolytic system serine proteases are evaluated as well as their substantial lack of interference with serine proteases of the fibrinolytic system. Thrombin inhibitors preferably should spare fibrinolysis induced by urokinase, tissue plasminogen activator (t-PA) and streptokinase. This would be important to the therapeutic use of such agents as an adjunct to streptokinase, t-PA or urokinase thrombolytic therapy and to the use of such agents as an endogenous fibrinolysis-sparing (with respect to t-PA and urokinase) antithrombotic agent. In addition to the lack of interference with the amidase activity of the fibrinolytic proteases, such fibrinolytic system sparing can be studied by the use of human plasma clots and their lysis by the respective fibrinolytic plasminogen activators.
Human factors X, Xa, IXa, XIa, and XIIa are purchased from Enzyme Research Laboratories, South Bend, Ind.; human urokinase from Leo Pharmaceuticals, Denmark; and recombinant activated Protein C (aPC) is prepared at Eli Lilly and Co. substantially according to U.S. Patent No. 4,981,952. Chromogenic substrates: N-Benzoyl-Ile-Glu-Gly-Arg-p-nitroanilide (for factor Xa); N-Cbz-D-Arg-Gly-Arg-p-nitroanilide (for factor IXa assay as the factor Xa substrate); Pyroglutamyl-Pro-Arg-p-nitroanilide (for Factor XIa and for aPC); H-D-Pro-Phe-Arg-p-nitroanilide (for factor XIIa); and Pyroglutamyl-Gly-Arg-p-nitroanilide (for urokinase); are purchased from KabiVitrum, Stockholm, Sweden, or from Midwest Biotech, Fishers, Ind. Bovine trypsin is purchased from Worthington Biochemicals, Freehold, N.J., and human plasma kallikrein from Kabi Vitrum, Stockholm, Sweden. Chromogenic substrate H-D-Pro-Phe-Arg-p-nitroanilide for plasma kallikrein is purchased from Kabi Vitrum, Stockholm, Sweden. N-Benzoyl-Phe-Val-Arg-p-nitroanilide, the substrate for human thrombin and for trypsin, is synthesized according to procedures described above for the compounds of the present invention, using known methods of peptide coupling from commercially available reactants or purchased from Midwest Biotech, Fishers, Ind.

[4] = target: T2, Bovine trypsin (Bos taurus, UniProt P00760); test: Kass with trypsin, chromogenic substrate
T2 construct: Bovine trypsin is purchased; purchased Worthington Biochemicals, Freehold, N.J
T2 sequence (P00760 24-246): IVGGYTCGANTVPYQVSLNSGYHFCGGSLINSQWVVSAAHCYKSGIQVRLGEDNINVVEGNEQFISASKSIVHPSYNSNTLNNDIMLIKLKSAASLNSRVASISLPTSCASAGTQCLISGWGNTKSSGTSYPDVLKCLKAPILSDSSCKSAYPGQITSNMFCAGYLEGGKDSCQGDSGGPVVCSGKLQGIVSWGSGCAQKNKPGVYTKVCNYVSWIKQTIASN

[5] = target: T3, Human plasmin (Homo sapiens, UniProt P00747); test: Kass with plasmin, chromogenic substrate
T3 construct: Human plasmin is purchased; purchased Boehringer Mannheim, Indianapolis, Ind
T3 sequence (P00747 97-810): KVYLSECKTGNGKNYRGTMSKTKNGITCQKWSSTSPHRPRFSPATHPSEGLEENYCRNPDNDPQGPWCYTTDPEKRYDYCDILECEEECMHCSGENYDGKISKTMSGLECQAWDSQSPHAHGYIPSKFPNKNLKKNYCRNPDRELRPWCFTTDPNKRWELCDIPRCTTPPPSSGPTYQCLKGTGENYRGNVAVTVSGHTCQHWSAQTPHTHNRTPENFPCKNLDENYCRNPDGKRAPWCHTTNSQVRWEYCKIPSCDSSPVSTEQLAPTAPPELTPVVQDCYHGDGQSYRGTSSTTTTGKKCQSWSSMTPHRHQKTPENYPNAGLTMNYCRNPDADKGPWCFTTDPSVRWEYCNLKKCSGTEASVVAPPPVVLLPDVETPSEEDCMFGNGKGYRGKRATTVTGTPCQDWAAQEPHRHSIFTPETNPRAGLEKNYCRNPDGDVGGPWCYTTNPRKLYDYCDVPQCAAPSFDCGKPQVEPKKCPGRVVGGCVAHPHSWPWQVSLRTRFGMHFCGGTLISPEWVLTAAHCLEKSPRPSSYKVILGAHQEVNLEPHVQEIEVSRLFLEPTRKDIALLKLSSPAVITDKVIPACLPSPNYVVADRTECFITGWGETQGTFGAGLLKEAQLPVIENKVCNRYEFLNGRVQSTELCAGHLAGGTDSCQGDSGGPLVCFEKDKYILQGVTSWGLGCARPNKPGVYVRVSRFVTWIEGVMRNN
T3 sequence (P00747 97-580 partner limits assumed): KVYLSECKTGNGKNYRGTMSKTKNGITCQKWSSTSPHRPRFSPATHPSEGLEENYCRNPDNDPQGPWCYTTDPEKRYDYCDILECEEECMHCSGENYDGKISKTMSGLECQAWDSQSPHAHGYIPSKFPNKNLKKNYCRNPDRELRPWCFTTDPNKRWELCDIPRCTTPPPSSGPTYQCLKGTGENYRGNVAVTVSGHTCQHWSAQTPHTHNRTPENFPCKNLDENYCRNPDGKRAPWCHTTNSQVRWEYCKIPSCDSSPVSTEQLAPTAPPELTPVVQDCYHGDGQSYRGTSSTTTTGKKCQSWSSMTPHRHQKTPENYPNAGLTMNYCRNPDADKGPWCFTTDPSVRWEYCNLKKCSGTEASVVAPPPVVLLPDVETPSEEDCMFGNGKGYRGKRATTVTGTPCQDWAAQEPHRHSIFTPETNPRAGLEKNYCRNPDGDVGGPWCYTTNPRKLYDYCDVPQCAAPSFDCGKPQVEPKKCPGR
Procedure: as §1
(§2) Human plasmin is purchased from Boehringer Mannheim, Indianapolis, Ind.; nt-PA is purchased as single chain activity reference from American Diagnostica, Greenwich, Conn. modified-t-PA6 (mt-PA6) is prepared at Eli Lilly and Company by procedure known in the art (See, Burck, et al., J. Biol. Chem., 265, […] (1990). Plasmin chromogenic substrate H-D-Val-Leu-Lys-p-nitroanilide and tissue plasminogen activator (t-PA) substrate H-D-Ile-Pro-Arg-p-nitroanilide are purchased from Kabi Vitrum, Stockholm, Sweden.

[6] = target: T4, t-PA (Homo sapiens, UniProt P00750); test: Kass with t-PA, chromogenic substrate; details: substrate H-D-Ile-Pro-Arg-p-nitroanilide
T4 construct: purchased American Diagnostica, Greenwich, Conn
T4 sequence (P00750 36-562): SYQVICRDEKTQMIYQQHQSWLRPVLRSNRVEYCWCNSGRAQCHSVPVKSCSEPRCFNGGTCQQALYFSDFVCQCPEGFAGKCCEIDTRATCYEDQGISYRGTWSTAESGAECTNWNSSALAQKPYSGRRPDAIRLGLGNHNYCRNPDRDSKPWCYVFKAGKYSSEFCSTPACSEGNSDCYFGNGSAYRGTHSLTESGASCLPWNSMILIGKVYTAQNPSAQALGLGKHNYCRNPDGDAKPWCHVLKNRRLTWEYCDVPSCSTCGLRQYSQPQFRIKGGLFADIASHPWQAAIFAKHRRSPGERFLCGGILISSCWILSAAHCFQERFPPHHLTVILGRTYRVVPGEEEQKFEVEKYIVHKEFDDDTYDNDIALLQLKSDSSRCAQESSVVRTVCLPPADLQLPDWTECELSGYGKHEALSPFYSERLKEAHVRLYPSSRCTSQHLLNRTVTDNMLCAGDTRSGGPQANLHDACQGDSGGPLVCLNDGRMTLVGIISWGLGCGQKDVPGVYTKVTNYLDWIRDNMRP
Procedure: as §1, §2

[7] = mean over a range of concentrations, […]
[8] = substrate N-Benzoyl-Ile-Glu-Gly-Arg-p-nitroanilide
[9] = substrate N-Benzoyl-Phe-Val-Arg-p-nitroanilide
[10] = substrate H-D-Val-Leu-Lys-p-nitroanilide

Row | Compound | Kass Human Thrombin [2, 7] | Kass Xa [3, 8] | Kass Trypsin [4, 9] | Kass Plasmin [5, 10] | Kass t-PA [6] | Human Plasma Anticoagulation 2× Clotting time TT [1] | Kass Human Thrombin [2] | Kass Xa [3] | Kass Trypsin [4] | Kass Plasmin [5]
1 | N=C(N)NC/C=C/CNC(=O)[C@@H]1CCCN1C(=O)[C@H](N)Cc1ccccc1 (relative stereo) [Example 8, D-Phe-Pro-NHCH2 -trans-CH=CHCH2 NHC(NH)NH2.HCl] | 5.3 × 10^6 (L/mole) | 0.00038 × 10^6 (L/mole) | 0.022 × 10^6 (L/mole) | 0.0008 × 10^6 (L/mole) | 0.0012 × 10^6 (L/mole) | 130 ng/mL |  |  |  | 
2 | NC[C@H]1CC[C@H](CNC(=O)[C@@H]2CCCN2C(=O)[C@H](N)Cc2ccccc2)CC1 (relative stereo) [Example 12, D-Phe-Pro-NHCH2 -trans-4-(aminomethyl)cyclohexane.HCl] | 0.44 × 10^6 (L/mole) | 0.000042 × 10^6 (L/mole) | 0.0022 × 10^6 (L/mole) | 0.00087 × 10^6 (L/mole) | 0.000042 × 10^6 (L/mole) | 1,700 ng/mL |  |  |  | 
3 | CCS(=O)(=O)N[C@H](CC1CCCCC1)C(=O)N1CCC[C@H]1C(=O)NCCCCNC(=N)N [Example 2, EtSO2 -D-Cha-Pro-Agm.HCl] | 4.4 × 10^6 (L/mole) | 0.0092 × 10^6 (L/mole) | 1.0 × 10^6 (L/mole) | 0.045 × 10^6 (L/mole) | 0.023 × 10^6 (L/mole) | 170 ng/mL |  |  |  | 
4 | N=C(N)NCCCCCNC(=O)[C@@H]1CCCN1C(=O)[C@H](N)Cc1ccccc1 [Example 6, D-Phe-Pro-NH(CH2)5 NHC(NH)NH2.HCl] |  |  |  |  | < 0.001 × 10^6 (L/mole) | 390 ng/mL | 2.3 | 0.00024 | 0.0016 | 0.00023
5 | N=C(N)NCc1ccc(CNC(=O)[C@@H]2CCCN2C(=O)[C@H](N)Cc2ccccc2)cc1 [Example 9, D-Phe-Pro-p-NHCH2 --C6 H4 CH2 NHC(NH)NH2.2TFA] | 0.033 × 10^6 (L/mole) | 0.00058 × 10^6 (L/mole) | 0.00017 × 10^6 (L/mole) | < 0.001 × 10^6 (L/mole) | < 0.001 × 10^6 (L/mole) | > 91,000 ng/mL |  |  |  | 

Further lines, with some results ahead:

Row | Kass Human Thrombin [2, 7] | Kass Xa [3, 8] | Kass Trypsin [4, 9] | Kass Plasmin [5, 10] | Kass t-PA [6] | Compound | Human Plasma Anticoagulation 2× Clotting time TT [1] | Kass Human Thrombin [2] | Kass Xa [3] | Kass Trypsin [4] | Kass Plasmin [5]
6 | 2.1 × 10^6 (L/mole) | 0.0021 × 10^6 (L/mole) | 0.24 × 10^6 (L/mole) | 0.0046 × 10^6 (L/mole) | 0.033 × 10^6 (L/mole) | CCOC(=O)N[C@H](Cc1ccccc1)C(=O)N1CCC[C@H]1C(=O)NCCCCNC(=N)N [Example 3, EtOCO-D-Phe-Pro-Agm.HCl] | 590 ng/mL |  |  |  | 
7 | 0.035 × 10^6 (L/mole) | 0.00039 × 10^6 (L/mole) | 0.00015 × 10^6 (L/mole) | 0.00022 × 10^6 (L/mole) | < 0.001 × 10^6 (L/mole) | N=C(N)NCCCCCCNC(=O)[C@@H]1CCCN1C(=O)[C@H](N)Cc1ccccc1 [Example 5, D-Phe-Pro-NH(CH2)6 NHC(NH)NH2.HCl] | 30,000 ng/mL |  |  |  | 
8 | 1.9 × 10^6 (L/mole) | 0.0041 × 10^6 (L/mole) | 0.0081 × 10^6 (L/mole) | 0.00022 × 10^6 (L/mole) | 0.0037 × 10^6 (L/mole) | N=C(N)NCCCNC(=O)[C@@H]1CCCN1C(=O)[C@H](N)Cc1ccccc1 [Example 7, D-Phe-Pro-NH(CH2)3 NHC(NH)NH2.HCl] | 490 ng/mL |  |  |  | 
